Results published in patent publication US10487091B2, “Activators of autophagic flux and phospholipase D and clearance of protein aggregates including tau and treatment of proteinopathies” (THE TRUSTEES OF COLUMBIA UNIVERSITY IN THE CITY OF NEW YORK, priority 2015, dated 2019).
Where two headings read alike, the source gives them in different places.

Tests used:
Tau/aggregate = Tau/aggregate inhibition in HEK 293 cells expressing mKate2-tagged Tau; type: cell-based, Human; conditions: for % Inhibition Tau/aggregate: @ 2 μM; for inhibition at 1 µM: Homo sapiens, HEK293
Description: (§1) 1) HEK cells with tet-regulated expression of mKate2 tagged Tau were grown in DMEM medium (Dulbecco's Modified Eagle's Medium) containing 0.5 μg/mL doxycycline (Dox)(MP-Bio#198955), after 3-5 days Dox was removed by washing the cells twice with sterile phosphate buffered saline (PBS; Invitrogen#14190-144), cells were left in DMEM without Dox for 72 hours (to further clear remaining Dox in cells).
(§2) The test compounds (along with CytoID™ dye and Hoechst stain) were added to the cells and incubated for 3 hours. Reference compounds were also used in each plate, Rapamycin was used for autophagy induction and chloroquine was used for lysosomal inhibition. After 3 hours test compound was aspirated off and kept. Cells were then washed and read using a fluorescence plate reader. Hoescht, Cyto-ID™ and mKate2 were measured using 3 distinct wavelengths on the plate reader. The Hoescht measurement allowed normalisation of results across wells. After reading, test compound was re-added and the cells are left for a further 21 hours. At the 24 hour time point cells were once again washed and plates read using the fluorescence plate reader.
(§3) Proteostat™ assay was used to detect aggresomes via measurement of p62. Aggresomes are inclusion bodies that form when the ubiquitin-proteasome machinery is overwhelmed with aggregation-prone proteins. Typically, an aggresome forms in response to some cellular stress, such as hyperthermia, viral infection, or exposure to reactive oxygen species. Aggresomes may provide a cytoprotective function by sequestering the toxic, aggregated proteins and may also facilitate their ultimate elimination from cells by autophagy. Following the final plate read described in the Cyto-ID™ assay described above, Proteostat™ detection reagent was added to every well and the plate was incubated for 15 minutes. Following this incubation, the plate was read by fluorescence plate reader at the specified wavelength. After this plate read, the cells were fixed by incubating with warm paraformaldehyde for 8 minutes. The fixed cells were then read by plate reader as before.
Western blot assays were performed to determine protein changes in Tau and p62. Cells were cultured as above and incubated with test compounds for 24 h. Following test compound incubation, the test compound was aspirated off and cells were washed before harvesting. Cells were spun at a low speed and supernatant was aspirated to leave the cell pellet. The cell pellet was then homogenized in buffer, centrifuged at high speed, and the supernatant aspirated and further separated into total fraction and aggregate fraction allowing quantification of soluble and insoluble proteins. Western blots were run on the samples, gels transferred to nitrocellulose and incubated with antibodies for Tau and p62. After incubation with secondary antibodies for detection, the bands of protein were quantified by chemiluminescence.

[1] = Cytotoxicity LC50 (XTT assay for cell viability); type: cell-based; conditions: human, transfected HEK 293 cells that express mKate2-tagged Tau;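 also: cells carry doxycycline-repressible Tau, induced by withdrawing doxycycline for 72 h before compound exposure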
Description: The cells were grown in the presence of the antibiotic doxycycline. When the antibiotic is removed the cells produce Tau (which can be quantified), thus allowing the test compounds' effects on Tau's production to be compared. Doxycycline was removed for 72 hours prior to exposure to the test compounds to promote sufficient Tau production. Cells were subsequently plated into plates for each of the assays described below.

Autophagy Markers = assay: Autophagy markers (Cyto-ID assay) in HEK 293 cells; type: cell-based, Human
Description: The dye used in the kit prevents its accumulation within lysosomes, but enables labelling of vacuoles associated with the autophagy pathway using the LC3 biomarker.
as §2
2) Test samples were prepared in warm FluoroBrite™ DMEM and with 10% FBS and 1% NEAA (FB-DMEM). Rapamycin 200 nM (Enzo #BML-A275-0025) was used for autophagy induction and […] chloroquine was used for lysosomal inhibition (bafilomycin or similar compounds were not used as they give a false negative result in the assay). Dimethyl Sulfoxide 1:1000 (DMSO; Fisher #BP231-100) was used as control. Autophagosome marker Cyto ID™ (1:500; Enzo #ENZ-51031-k200) and Hoechst (1:200) was added to these test sample preparations before treating the cells.
7) At 24 hours post reaction all medium was aspirated and the plate was washed 3 times with warm FB-DMEM, and read again for Hoescht (Ex=355 nm Em=446 nm), CytoID™ (Ex=463 nm; Em=534 nm) and mKate2 (Ex=575 nm; Em=630 nm) in 80 μl of FB-DMEM.

phospholipase D (PLD) = assay: PLD assay (conversion of phospholipids to phosphatidylethanols in presence of ethanol, LC/MS); type: cell-based, mice; set-up: key: NC—no change; conditions: PLD activation, fold; 24 hours incubation
Description: Cells were incubated with test compound for 24 hours. 25 minutes prior to harvest at 24 hours, 3% ethanol solution was added to the wells to catalyze cleavage of the phospholipid. Cells were then placed on ice, washed and harvested. The harvested cells were centrifuged and the supernatant was aspirated and the pellet kept. The pellet was resuspended and chloroform/methanol lipid extraction was performed. The sample was centrifuged and the organic layer was separated, dried under nitrogen and stored at −80° C. On the day of analysis, samples were resuspended and analysed by LC/MS. All phosphatidylethanol species (PEtOH32-40:0-6:16/18:0/1) were combined together and represented as total lipid content (all lipid species).
The assay was run in e18 primary cortical neurons from PLD1 or PLD2 KO mice cultured for 14 days. Alternatively, the assay can be run in the cells described above in the presence of excess PLD1 or PLD2 inhibitor to preclude that particular action from contributing to the effect of the drug.
4) On the day of experiment, cells were washed in warmed HBSS twice before media containing test compound (n=3 per compound per dose), inhibitor (355 nM ML298 or 50 nM VU0150669), or vehicle are added to the wells (1.5 mL in 6 well, 600 μL in 12 well). Plates were incubated for 24 hours at 37° C. with 5% CO2.
5) 25 minutes prior to harvest, a 165 μL of a 3% ethanol solution was added to each well.
PLD activation converts phospholipids to phosphatidylethanols in the presence of ethanol. […] FIPI is a non-competitive inhibitor of PLD activity and was used as a negative control.

mKate2 tagged Tau = assay: Tau-mKate2 fluorescence EC50; type: cell-based; conditions: Homo sapiens; 50% reduction of mKate2 fluorescence (tau tag)
Description: as §1
as §2, with “After 3 hours test compound was aspirated off and kept.” left out, “The Hoescht measurement allowed normalisation of results across wells.” left out
5) Treatment plate was then washed quickly 3 times with warm FB-DMEM (100 μL/well). […] At this point, the plate was ready for reading. See details in Reading Plate section. Hoescht was read at Excitation wavelength (Ex)=355 nm & Emission wavelength (Em)=446 nm. mKate2 was read at Ex=575 nm & Em=630 nm. Cyto-ID™ was read at Ex=463 nm & Em=534 nm. […]

aggregates (Proteostat) = assay: Proteostat protein aggregation assay EC50; type: cell-based; conditions: Homo sapiens; 50% reduction of Proteostat levels (fluorescent marker of aggregates)
Description: as §3
8) Detection solution was prepared by adding 10 μl Proteostat™ detection reagent (ENZ-51023-KP002) and 200 μL of 10× assay buffer into 1790 μL water and mixing well.
9) 20 μL was added per well (each well had 80 μl of Fluorobrite™ media with no FBS) and incubated in the dark for 15 min at room temperature.
10) Fluorescence for Proteostat™ (Ex=550 nm; Em=600 nm) was then read.

Structure (SMILES)	% Inhibition Tau/aggregate (Tau/aggregate)	CC50 ([1]; read-out: Cyto-toxixity LC50) [µM]	% Increase Autophagy Markers (Autophagy Markers; @ 2 μM)	PLD (phospholipase D (PLD))	inhibition at 1 µM (Tau/aggregate) [%]	% Increase Autophagy Markers (Autophagy Markers) [%]	CC50 ([1]; XTT assay, 200 = upper concentration limit tested, read-out: LC50 (the source's name)) [µM]	EC50 (mKate2 tagged Tau) [nM]	EC50 (aggregates (Proteostat)) [nM]
Cn1nnnc1Sc1ncnc2scnc12 [WHYKD1]	No Effect @ 2 μM	> 100	No Effect @ 2 μM	NC					
Oc1ccc(CCNc2ncnc3scnc23)cc1 [WHYKD2]	No Effect @ 2 μM	> 100	No Effect @ 2 μM						
Cn1nnnc1Sc1ncnc2ccc(Br)cc12 [WHYKD3]	No Effect @ 2 μM	> 100	No Effect @ 2 μM	NC					
Cn1nnnc1Sc1ncnc2ccc(-c3cccc4ccccc34)cc12 [WHYKD4]	No Effect @ 2 μM	> 100	No Effect @ 2 μM						
Cn1nnnc1Sc1ncnc2ccc(F)cc12 [WHYKD5]		> 100		1.7X	35	20			
Cn1nnnc1Sc1ncnc2ccccc12 [WHYKD6]	No Effect @ 2 μM	> 100	No Effect @ 2 μM						
Cn1nnnc1Sc1ncnc2ccc(Cl)cc12 [WHYKD7]	No Effect @ 2 μM	> 100	No Effect @ 2 μM						
Fc1ccc2ncnc(Cl)c2c1 [WHYKD9]	No Effect @ 2 μM	> 100	No Effect @ 2 μM						
Cn1nnnc1Sc1ccnc2ccccc12 [WHYKD10]	No Effect @ 2 μM	> 100	No Effect @ 2 μM						
Cn1nnnc1Sc1ccnc2ccc(F)cc12 [WHYKD11]	No Effect @ 2 μM	> 100	No Effect @ 2 μM						
Fc1ccc2ncnc(SC3CCCCC3)c2c1 [WHYKD12]		> 100		3.4 X	60	40			
CC1(Sc2ncnc3ccc(F)cc23)CCC2CC1C2(C)C (stereo not drawn) [WHYKD13]	No Effect @ 2 μM	> 100	No Effect @ 2 μM						
Fc1ccc2ncnc(SC34CC5CC(CC(C5)C3)C4)c2c1 [WHYKD14]	No Effect @ 2 μM	> 100	No Effect @ 2 μM						
Fc1ccc2ncnc(SC3CCCC3)c2c1 [WHYKD15]		> 100		3.6 X	65	40			
Fc1ccc2ncnc(SC3CC4CCC3C4)c2c1 (stereo not drawn) [WHYKD16]	No Effect @ 2 μM	> 100	No Effect @ 2 μM						
COC(=O)CC12CC3CC(C1)CC(Sc1ncnc4ccc(F)cc14)(C3)C2 [WHYKD18]	No Effect @ 2 μM	> 100	No Effect @ 2 μM						
Fc1ccc2ncnc(SC3CCOCC3)c2c1 [WHYKD19]		> 100		3.5 X	55	35			
Fc1ccc2ncnc(SC3Cc4ccccc4C3)c2c1 [WHYKD20]	No Effect @ 2 μM	> 100	No Effect @ 2 μM						
Oc1ccc(CCNc2ncnc3ncsc23)cc1 [WHYKD21]	No Effect @ 2 μM	> 100	No Effect @ 2 μM						
Oc1ccc(CCNc2ncnc3sccc23)cc1 [WHYKD22]	No Effect @ 2 μM	> 100	No Effect @ 2 μM						
Oc1ccc(CCNc2ncnc3ccsc23)cc1 [WHYKD23]	No Effect @ 2 μM	> 100	No Effect @ 2 μM						
O=c1[nH]cnc2ccc(F)cc12 [WHYKD24]		> 100			30	15			
Ic1ccc2ncnc(SC3CCCC3)c2c1 [WHYKD30]							> 200	1110	2510
